Experimental data as given in US8728537B2, “Compositions for improvement of wound healing” (Cytotools AG, priority 2003, dated 2014).

System: MRC 5 fibroblasts
Assay: Cell biological test of active substance: proliferation of MRC 5 fibroblasts by quantification of cellular DNA after DAPI staining
Type: cell-based
Settings: solutions containing only RC (50 μM) or only chlorite (100 μM)
Procedure: The MRC 5 cells are seeded at 400 cells/cm^2 in a 24 well cell culture plate. The subsequent cultivation is carried out in an incubator 37° C. and 5 vol. % CO2 in a water vapor saturated atmosphere. After 24 hours of precultivation, the culture medium is suctioned off and the cells are washed with PBS.
After 24, 48 and 72 hours, the proliferation of the cells is determined by quantification of the cellular DNA in a fluorometer (Novostar-Company: BMG Labtechnologies) after DAPI staining. Here, the increased fluorescence in the samples is equal to a proliferation of the cells.
The plate to be measured is washed once per well with 500 μl PBS and then 250 μl PBS is placed in each well. 250 μl lysis buffer are added and the cells are lysed in a shaker at the lowest setting for 30 min at RT. Subsequently, 500 μl DAPI solution is added and the plate is left to stand for a further 10 min at RT.
The plate is measured at 355 nm ex. and 460 nm em. in the Novostar. Normally, work is carried out with a gain adjustment of 1400-1600.
The multiple determinations are averaged and the error values are calculated. The data obtained is evaluated graphically.

Substance: chlorite
- effect on the growth behaviour of the fibroblasts: no effect whatsoever
